Experimental data published in ChEMBL document CHEMBL1201862, “PubChem BioAssay data set” (2004).
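The compound was tested at five concentrations on cells cultured in 96-well plates, with a 48-hour exposure period. At the GI50, growth is halved.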 Active and inactive are the calls of the source. No stated cut-off is given here; in the data, active = GI50 up to about 1.1 µM and inactive = higher.

Tests used:
Assay in all cases: NCI-60 cell line screen, 48 h
UACC-62 = system: UACC-62
OVCAR-4 = system: OVCAR-4
HCT-15 = system: HCT-15
MOLT-4 = system: MOLT-4
UACC-257 = system: UACC-257
HL-60 = system: HL-60
SF-295 = system: SF-295
SK-MEL-2 = system: SK-MEL-2
SF-268 = system: SF-268
SNB-75 = system: SNB-75
NCI-H460 = system: NCI-H460
HCT-116 = system: HCT-116
COLO 205 = system: COLO 205
SR = system: SR
SNB-19 = system: SNB-19
TK-10 = system: TK-10
NCI-H522 = system: NCI-H522
SK-OV-3 = system: SK-OV-3
K562 = system: K562
RXF 393 = system: RXF 393

Row | Structure (SMILES) | GI50 (UACC-62) | GI50 (OVCAR-4) | GI50 (HCT-15) [µM] | GI50 (MOLT-4) | GI50 (UACC-257) | GI50 (HL-60) | GI50 (SF-295) | GI50 (SK-MEL-2) | GI50 (SF-268) | GI50 (SNB-75) | GI50 (NCI-H460) | GI50 (HCT-116) | GI50 (COLO 205) | GI50 (SR) | GI50 (SNB-19) | GI50 (TK-10) | GI50 (NCI-H522) | GI50 (SK-OV-3) | GI50 (K562) | GI50 (RXF 393)
1 | Clc1c2nc3ccccc3c-2[nH]c2ccccc12 | 48.8 µM (inactive) | > 100 µM (inactive) | 14.4 | 2.9 µM (inactive) | 50.2 µM (inactive) | 15.6 µM (inactive) | < 0.01 µM (active) | > 100 µM (inactive) | 64.3 µM (inactive) | 39.9 µM (inactive) | 27.2 µM (inactive) | 8.55 µM (inactive) | 2.86 µM (inactive) | 4.37 µM (inactive) | > 100 µM (inactive) | 98.4 µM (inactive) | 20.1 µM (inactive) |  |  | 
2 | OCC(O)C1OC2CC1Nc1ccccc1N2 (stereo not given) | > 100 µM (inactive) |  | > 100 | > 100 µM (inactive) | > 100 µM (inactive) | > 100 µM (inactive) | > 100 µM (inactive) | > 100 µM (inactive) | > 100 µM (inactive) | > 100 µM (inactive) | > 100 µM (inactive) | > 100 µM (inactive) | > 100 µM (inactive) | > 10 µM (inactive) | > 100 µM (inactive) | > 100 µM (inactive) | > 100 µM (inactive) | > 100 µM (inactive) | > 100 µM (inactive) | 
3 | CN1CCN(C2CC(=O)c3c(Cl)sc(Cl)c32)CC1 (stereo not given) | 16.3 µM (inactive) | 14.6 µM (inactive) | 10.4 | 5.48 µM (inactive) | 27.1 µM (inactive) | 19.9 µM (inactive) | 21.4 µM (inactive) | 19.1 µM (inactive) | 8.85 µM (inactive) | 14.7 µM (inactive) | 30.6 µM (inactive) | 6.92 µM (inactive) | 20.7 µM (inactive) | 4 µM (inactive) | 30.7 µM (inactive) | 29 µM (inactive) | 4.8 µM (inactive) | > 54.6 µM (inactive) | 4.06 µM (inactive) | 
4 | O=C1Nc2cccc(Cl)c2/C1=C\c1c(Cl)nc2sccn12 | 31.5 µM (inactive) |  | > 100 | > 100 µM (inactive) | > 100 µM (inactive) | > 100 µM (inactive) | 28.2 µM (inactive) | 13.5 µM (inactive) | 18.9 µM (inactive) | 11.2 µM (inactive) | > 100 µM (inactive) | 37.3 µM (inactive) | > 100 µM (inactive) | > 100 µM (inactive) | 17.6 µM (inactive) | 11.2 µM (inactive) | 50.5 µM (inactive) | 14.9 µM (inactive) | > 100 µM (inactive) | 13.7 µM (inactive)
5 | COC(=O)CC1C(=O)OCc2c1cc1n(c2=O)Cc2c-1nc1ccccc1c2OC (stereo not given) | 19.7 µM (inactive) | > 100 µM (inactive) | > 100 | 3.93 µM (inactive) | > 100 µM (inactive) | 18.5 µM (inactive) |  | > 100 µM (inactive) | 19.3 µM (inactive) | 6.53 µM (inactive) | 4.16 µM (inactive) | 13.4 µM (inactive) | > 100 µM (inactive) | 6.05 µM (inactive) | 37 µM (inactive) | > 100 µM (inactive) | 25.8 µM (inactive) | 54.5 µM (inactive) | 84.1 µM (inactive) | 17.5 µM (inactive)
6 | CN(C)C(=S)/N=c1\ss/c(=N\C(=S)N(C)C)n1Cc1ccco1 | > 100 µM (inactive) | > 100 µM (inactive) | > 100 | > 100 µM (inactive) | > 100 µM (inactive) | > 100 µM (inactive) |  | > 100 µM (inactive) | > 100 µM (inactive) | > 100 µM (inactive) | > 100 µM (inactive) | > 100 µM (inactive) | > 100 µM (inactive) | > 100 µM (inactive) | > 100 µM (inactive) | > 100 µM (inactive) | > 100 µM (inactive) | > 100 µM (inactive) | > 100 µM (inactive) | > 100 µM (inactive)
7 | O=C(CC1(O)C(=O)Nc2ccccc21)c1ccncc1 (stereo not given) | > 100 µM (inactive) | > 100 µM (inactive) | > 100 | > 100 µM (inactive) |  | > 100 µM (inactive) | > 100 µM (inactive) | > 100 µM (inactive) | > 100 µM (inactive) | > 100 µM (inactive) | > 100 µM (inactive) | > 100 µM (inactive) | > 100 µM (inactive) | > 100 µM (inactive) | > 100 µM (inactive) |  | > 100 µM (inactive) | > 100 µM (inactive) | > 100 µM (inactive) | > 100 µM (inactive)
8 | Cc1ccc(/C=N\NC(=O)c2ccncc2)s1 | > 100 µM (inactive) | > 100 µM (inactive) | > 100 | > 100 µM (inactive) | > 100 µM (inactive) | > 100 µM (inactive) | > 100 µM (inactive) | > 100 µM (inactive) | > 100 µM (inactive) |  | > 100 µM (inactive) | > 100 µM (inactive) | > 100 µM (inactive) | > 100 µM (inactive) | > 100 µM (inactive) | > 100 µM (inactive) | > 100 µM (inactive) | > 100 µM (inactive) | > 100 µM (inactive) | > 100 µM (inactive)
9 | CC1OC(n2cc(F)c(=O)[nH]c2=O)C(O[Si](C)(C)C(C)(C)C)C1O[Si](C)(C)C(C)(C)C (stereo not given) | 14.8 µM (inactive) | 6.41 µM (inactive) | 12.9 | 13.2 µM (inactive) | 17.7 µM (inactive) | 5.93 µM (inactive) | 11.5 µM (inactive) | 16.3 µM (inactive) | 12 µM (inactive) | 15.5 µM (inactive) |  | 13.9 µM (inactive) | 14.4 µM (inactive) | 6.03 µM (inactive) | 14.7 µM (inactive) | 10.7 µM (inactive) | 4.34 µM (inactive) | 14.7 µM (inactive) | 15.4 µM (inactive) | 14 µM (inactive)
10 | O=C(O)CCC(NC(=O)c1ccc(Nc2nc3ccccc3nc2C(=O)O)cc1)C(=O)O (stereo not given) | > 100 µM (inactive) | > 100 µM (inactive) |  | > 100 µM (inactive) | > 100 µM (inactive) | > 100 µM (inactive) | > 100 µM (inactive) | > 100 µM (inactive) | > 100 µM (inactive) | > 100 µM (inactive) |  | > 100 µM (inactive) | > 100 µM (inactive) | > 100 µM (inactive) | > 100 µM (inactive) | > 100 µM (inactive) | > 100 µM (inactive) | > 100 µM (inactive) | > 100 µM (inactive) | 
11 | CCCCNc1nc(NC2OCC(OC(C)=O)C(OC(C)=O)C2OC(C)=O)c(N=O)c(=O)n1C (stereo not given) | > 10 µM (inactive) | > 10 µM (inactive) | > 10 | > 10 µM (inactive) | > 10 µM (inactive) | > 10 µM (inactive) | > 10 µM (inactive) | > 10 µM (inactive) | > 10 µM (inactive) | > 10 µM (inactive) | > 10 µM (inactive) | > 10 µM (inactive) | > 10 µM (inactive) | > 10 µM (inactive) | > 10 µM (inactive) | > 10 µM (inactive) | > 10 µM (inactive) | > 10 µM (inactive) |  | > 10 µM (inactive)
12 | CCCCCCCCCCCCCCCCCCNc1ccn(C2OC(COP(=O)(O)OC3CC(n4cc(F)c(=O)[nH]c4=O)OC3COP(=O)(O)OCC3OC(n4ccc(N)nc4=O)C(O)C3O)C(O)C2O)c(=O)n1 (stereo not given) | 1.1 µM (active) | 41.7 µM (inactive) | 12.2 | 0.611 µM (active) | 22.6 µM (inactive) | 0.26 µM (active) | 0.413 µM (active) | 18.1 µM (inactive) |  | 38.6 µM (inactive) | < 0.0129 µM (active) | 1.03 µM (active) | 8.17 µM (inactive) | 0.407 µM (active) | 9.2 µM (inactive) | 2.56 µM (inactive) | 13 µM (inactive) | 19.9 µM (inactive) | 16.6 µM (inactive) | 16 µM (inactive)
13 | Cc1ccc(S(=O)(=O)N/N=C2\CCCCC23CCC(=O)NC3)cc1 (stereo not given) | > 100 µM (inactive) | > 100 µM (inactive) | > 100 | > 100 µM (inactive) | > 100 µM (inactive) | > 100 µM (inactive) |  | > 100 µM (inactive) | > 100 µM (inactive) | > 100 µM (inactive) | > 100 µM (inactive) | > 100 µM (inactive) | > 100 µM (inactive) | > 100 µM (inactive) | > 100 µM (inactive) | > 100 µM (inactive) | > 100 µM (inactive) | > 100 µM (inactive) | > 100 µM (inactive) | > 100 µM (inactive)
14 | CC(C)C1=CC23CCC4C(C)(C(=O)O)CCCC4(C)C2CC1C1C(=O)N(c2cccc(N4C(=O)C5C6CC7C8(C)CCCC(C)(C(=O)O)C8CCC7(C=C6C(C)C)C5C4=O)c2)C(=O)C13 (stereo not given) | 16.5 µM (inactive) | 24 µM (inactive) | 11.4 | 11.1 µM (inactive) |  | 9.79 µM (inactive) |  | 15.7 µM (inactive) | 12 µM (inactive) |  |  | 9.57 µM (inactive) | 10.6 µM (inactive) | 9.55 µM (inactive) | 3.02 µM (inactive) | 15.9 µM (inactive) | 14.2 µM (inactive) |  | 7.87 µM (inactive) | 12.6 µM (inactive)
15 | O=[N+]([O-])c1ccc(-c2nnc(C34CC5CC(CC(C5)C3)C4)o2)cc1 | > 100 µM (inactive) | > 100 µM (inactive) | > 100 | > 100 µM (inactive) |  | > 100 µM (inactive) | > 100 µM (inactive) | > 100 µM (inactive) | > 100 µM (inactive) | > 100 µM (inactive) | > 100 µM (inactive) | > 100 µM (inactive) | > 100 µM (inactive) | > 100 µM (inactive) | > 100 µM (inactive) | > 100 µM (inactive) | > 100 µM (inactive) | > 100 µM (inactive) | > 100 µM (inactive) | > 100 µM (inactive)
